Measured values taken from ChEMBL document CHEMBL1150960, “Isolation, structure determination, and biological activity of dolastatin 12 and lyngbyastatin 1 from Lyngbya majuscula/Schizothrix calcicola cyanobacterial assemblages” (J Nat Prod, 1998).
Values after ≈ are worked out from the molar mass of the structure shown. Active and inactive are the calls of the source. The rule behind the calls is not given here. *1 amine or outer side, *2 acyl side, *3 side chain or, on linkers, in order; H or OH if unused. Where a SMILES comes first, the peptide text is derived from it. [ ]: non-standard residue; d: D form. X2 = CC[C@H](C)[C@H](OC(=O)[C@@H](C)[C@@H](CC)N[*:1])C(=O)[*:2]; X1 = C[C@H](N[*:1])C(=O)C(C)(C)C(=O)[*:2]; NMeY = CN[C@@H](Cc1ccc(O)cc1)C(=O)O; NMeF = CN[C@@H](Cc1ccccc1)C(=O)O; NMeI = CC[C@H](C)[C@H](NC)C(=O)O; NMeL = CN[C@@H](CC(C)C)C(=O)O; NMeV = CN[C@H](C(=O)O)C(C)C; NMeA = CN[C@@H](C)C(=O)O

What was measured:
LoVo = assay: Cytotoxicity against human LoVo cells; type: functional
Mus musculus [1] = assay: Toxicity in mouse mammary 16/C cells xenografted C3H mouse assessed as mortality at 6.4 mg/kg, iv administered in QD 1-8 schedule; type: organism-based; design: dose 6.4 mg/kg, route intravenous; details: in vivo
A10 [2] = assay: Inhibition of cytokinesis in rat A10 cells at 0.01 to 2 ug/ml; type: functional, cell-based
MC-38 [3] = assay: Cytotoxicity against mouse Colon 38 cells assessed as zone units at 2 ug/disk by Corbett soft agar disk diffusion assay; type: functional
MC-38 [4] = assay: Antitumor activity against mouse Colon 38 cells xenografted BDF mouse at 7.5 mg/kg, iv administered in QD 3-11 schedule; type: functional
[5] = Cytotoxicity against mouse mammary 17/Adr cells assessed as zone units at 2 ug/disk by Corbett soft agar disk diffusion assay; type: functional
L1210 [6] = assay: Cytotoxicity against mouse L1210 cells assessed as zone units at 2 ug/disk by Corbett soft agar disk diffusion assay; type: functional
A10 [7] = assay: Induction of apoptosis in rat A10 cells assessed as apoptotic nuclei at 2 ug/ml; type: functional, cell-based
Mus musculus [8] = assay: Toxicity in mouse Colon 38 cells xenografted BDF mouse assessed as body weight loss at nadir at 7.5 mg/kg, iv administered in QD 3-11 schedule; type: organism-based, MC-38; design: dose 7.5 mg/kg, route intravenous; details: in vivo
A10 [9] = assay: Effect on morphology in rat A10 cells assessed as formation of binuclear cells at 0.01 to 2 ug/ml; type: functional, cell-based
A10 [10] = assay: Effect on morphology in rat A10 cells assessed as microtubule loss at 0.01 to 2 ug/ml after 24 hrs by […]; type: functional, cell-based
MC-38 [11] = assay: Antitumor activity against mouse Colon 38 cells xenografted BDF mouse at 10.3 mg/kg, iv administered in QD 3-11 schedule; type: functional
[12] = Cytotoxicity against CFU-GM cells assessed as zone units at 2 ug/disk by Corbett soft agar disk diffusion assay; type: functional
[13] = Cytotoxicity against human H116 cells assessed as zone units at 2 ug/disk by Corbett soft agar disk diffusion assay; type: functional
Mus musculus [14] = assay: Toxicity in mouse Colon 38 cells xenografted BDF mouse assessed as body weight loss at nadir at 10.3 mg/kg, iv administered in QD 3-11 schedule; type: organism-based, MC-38; design: dose 10.3 mg/kg, route intravenous; details: in vivo
Mus musculus [15] = assay: Toxicity in mouse mammary 16/C cells xenografted C3H mouse assessed as body weight loss at nadir at 3.2 mg/kg, iv administered in d 1,2 schedule; type: organism-based; design: dose 3.2 mg/kg, route intravenous; details: in vivo
Mus musculus [16] = assay: Necrosis in iv dosed mouse assessed as inflamed, bloody, upper GI tract with pancreatic damage and hemorrhage in lungs; type: organism-based, Gastrointestinal tract; details: in vivo
Mus musculus [17] = assay: Toxicity in mouse mammary 16/C cells xenografted C3H mouse assessed as mortality at 3.2 mg/kg, iv administered in d 1,2 schedule; type: organism-based; design: dose 3.2 mg/kg, route intravenous; details: in vivo
Mus musculus [18] = assay: Toxicity in mouse mammary 16/C cells xenografted C3H mouse assessed as body weight loss at nadir at 6.4 mg/kg, iv administered in QD 1-8 schedule; type: organism-based; design: dose 6.4 mg/kg, route intravenous; details: in vivo
[19] = Antitumor activity against mouse mammary 16/C cells xenografted C3H mouse at 3.2 mg/kg, iv administered in d 1,2 schedule; type: functional
[20] = Antitumor activity against mouse mammary 16/C cells xenografted C3H mouse at 6.4 mg/kg, iv administered in QD 1-8 schedule; type: functional
KB = assay: Cytotoxicity against human KB cells; type: functional
MC-38 [21] = assay: Cytotoxicity against mouse Colon 38 cells assessed as zone units at 12 ug/disk by Corbett soft agar disk diffusion assay; type: functional
[22] = Cytotoxicity against CFU-GM cells assessed as zone units at 12 ug/disk by Corbett soft agar disk diffusion assay; type: functional
[23] = Cytotoxicity against human H116 cells assessed as zone units at 12 ug/disk by Corbett soft agar disk diffusion assay; type: functional
L1210 [24] = assay: Cytotoxicity against mouse L1210 cells assessed as zone units at 12 ug/disk by Corbett soft agar disk diffusion assay; type: functional
A10 [25] = assay: Effect on morphology in rat A10 cells assessed as microtubule loss at 0.2 ug/ml after 24 hrs by […]; type: functional, cell-based
Mus musculus [26] = assay: Toxicity in mouse Colon 38 cells xenografted BDF mouse assessed as mortality at 13 mg/kg, iv administered in QD 3-11 schedule; type: organism-based, MC-38; design: dose 13 mg/kg, route intravenous; details: in vivo
[27] = Antitumor activity against mouse mammary 16/C cells xenografted C3H mouse at 11.7 mg/kg, iv administered in QD 1-9 schedule; type: functional
A10 [28] = assay: Induction of apoptosis in rat A10 cells assessed as fragmented cell nuclei at 0.2 ug/ml; type: functional, cell-based
Mus musculus [29] = assay: Antitumor activity against mouse mammary 16/C cells xenografted C3H mouse at 4.8 mg/kg, iv administered in d 1,2 schedule; type: functional, organism-based; design: dose 4.8 mg/kg
Mus musculus [30] = assay: Toxicity in mouse mammary 16/C cells xenografted C3H mouse assessed as mortality at 11.7 mg/kg, iv administered in QD 1-9 schedule; type: organism-based; design: dose 11.7 mg/kg, route intravenous; details: in vivo
A10 [31] = assay: Inhibition of cytokinesis in rat A10 cells; type: functional, cell-based
MC-38 [32] = assay: Antitumor activity against mouse Colon 38 cells xenografted BDF mouse at 15 mg/kg, iv administered in d 3,4,7-10 schedule; type: functional, organism-based; design: dose 15 mg/kg
Mus musculus [33] = assay: Toxicity in mouse Colon 38 cells xenografted BDF mouse assessed as body weight loss at nadir at 15 mg/kg, iv administered in d 3,4,7-10 schedule; type: organism-based, MC-38; design: dose 15 mg/kg, route intravenous; details: in vivo
Mus musculus [34] = assay: Toxicity in mouse mammary 16/C cells xenografted C3H mouse assessed as body weight loss at nadir at 11.7 mg/kg, iv administered in QD 1-9 schedule; type: organism-based; design: dose 11.7 mg/kg, route intravenous; details: in vivo
Mus musculus [35] = assay: Toxicity in mouse mammary 16/C cells xenografted C3H mouse assessed as mortality at 4.8 mg/kg, iv administered in d 1,2 schedule; type: organism-based; design: dose 4.8 mg/kg, route intravenous; details: in vivo
A10 [36] = assay: Effect on morphology in rat A10 cells assessed as loss of cellular microfilament network at 2 ug/ml after 24 hrs by rhodamine-phalloidin staining; type: functional, cell-based
A10 [37] = assay: Effect on morphology in rat A10 cells assessed as microtubule loss at 2 ug/ml after 24 hrs by […]; type: functional, cell-based
MC-38 [38] = assay: Antitumor activity against mouse Colon 38 cells xenografted BDF mouse at 13 mg/kg, iv administered in QD 3-11 schedule; type: functional
A10 [39] = assay: Effect on morphology in rat A10 cells assessed as formation of binuclear cells; type: functional, cell-based
A10 [40] = assay: Effect on morphology in rat A10 cells assessed as loss of cellular microfilament network at 0.2 ug/ml after 24 hrs by rhodamine-phalloidin staining; type: functional, cell-based
Mus musculus [41] = assay: Toxicity in mouse mammary 16/C cells xenografted C3H mouse assessed as body weight loss at nadir at 4.8 mg/kg, iv administered in d 1,2 schedule; type: organism-based; design: dose 4.8 mg/kg, route intravenous; details: in vivo
Mus musculus [42] = assay: Toxicity in mouse Colon 38 cells xenografted BDF mouse assessed as body weight loss at nadir at 13 mg/kg, iv administered in QD 3-11 schedule; type: organism-based, MC-38; design: dose 13 mg/kg, route intravenous; details: in vivo

In the case of `CC[C@H](C)[C@@H]1OC(=O)[C@@H](C)[C@@H](CC)NC(=O)[C@H](C)N(C)C(=O)C(C)(C)C(=O)[C@H](C)NC(=O)[C@H](Cc2ccccc2)N(C)C(=O)[C@H](C(C)C)N(C)C(=O)CNC(=O)[C@H](CC(C)C)N(C)C(=O)CNC1=O` [DOLASTATIN 12] (cyclo(G[NMeL]G[NMeV][NMeF][X1][NMeA][X2])), the MIC (LoVo) is reported as 0.08 µg/mL (≈ 0.0825 µM), the Activity (Mus musculus [1]) is reported as “Non-toxic” and the Activity (A10 [2]) is reported as “Active”. The Activity (MC-38 [3]) was 630 Zone units, the T/C (MC-38 [4]) was 92% and the Activity [5] was 270 Zone units. The Activity (L1210 [6]) was 420 Zone units, the Activity (A10 [7]) was “Active” and the Activity (Mus musculus [8]) was -8%. For the same compound, the Activity (A10 [9]) was “Active”, the Activity (A10 [10]) was “inactive” and the T/C (MC-38 [11]) was 41%. For the same compound, the Activity [12] was 500 Zone units, the Activity [13] was 480 Zone units and the Activity (Mus musculus [14]) was -15%. The Activity (Mus musculus [15]) was -13%, the Activity (Mus musculus [16]) was “Toxic” and the Activity (Mus musculus [17]) was “Toxic”. For the same compound, the Activity (Mus musculus [18]) was -3%, the T/C [19] was 68% and the T/C [20] was 86%. For the same compound, the MIC (KB) was under 0.05 µg/mL.
`CC[C@H](C)[C@@H]1OC(=O)[C@@H](C)[C@@H](CC)NC(=O)[C@H](C)NC(=O)C(C)(C)C(=O)[C@H](C)NC(=O)[C@H](Cc2ccc(OC)cc2)N(C)C(=O)[C@H](C(C)C)N(C)C(=O)CNC(=O)[C@H]([C@@H](C)CC)N(C)C(=O)CNC1=O` [MAJUSCULAMIDE] (cyclo(A[X2]G[NMeI]G[NMeV][NMeY](Me)[X1])) gave an Activity (MC-38 [21]) of 730 Zone units, an Activity [22] of 450 Zone units and an Activity [23] of 710 Zone units. The Activity (L1210 [24]) was 500 Zone units.
For `CC[C@H](C)[C@@H]1OC(=O)[C@@H](C)[C@@H](CC)NC(=O)[C@H](C)N(C)C(=O)C(C)(C)C(=O)[C@H](C)NC(=O)[C@H](Cc2ccc(OC)cc2)N(C)C(=O)[C@H](C(C)C)N(C)C(=O)CNC(=O)[C@H](CC(C)C)N(C)C(=O)CNC1=O` [epilyngbyastatin 1] (cyclo(G[NMeL]G[NMeV][NMeY](Me)[X1][NMeA][X2])), the Activity (A10 [25]) was “inactive”, the Activity (Mus musculus [26]) was “Non-toxic” and the MIC (LoVo) was 0.5 µg/mL (≈ 0.5 µM). The T/C [27] was 61%, the Activity (MC-38 [3]) was 670 Zone units and the Activity [5] was 650 Zone units. The Activity (L1210 [6]) was 450 Zone units, the Activity (A10 [28]) was “inactive” and the Activity (A10 [7]) was “Active”. The Activity (Mus musculus [29]) was “Toxic”, the Activity (Mus musculus [30]) was “Non-toxic” and the Activity (A10 [31]) was “inactive”. The Activity [12] was 570 Zone units, the Activity (MC-38 [32]) was “Toxic” and the Activity (Mus musculus [33]) was -8%. The Activity [13] was 580 Zone units, the Activity (Mus musculus [34]) was -4% and the Activity (Mus musculus [35]) was “Toxic”. For the same compound, the Activity (A10 [36]) was “Active”, the Activity (A10 [37]) was “inactive” and the T/C (MC-38 [38]) was 93%. The Activity (A10 [39]) was “inactive”, the Activity (Mus musculus [16]) was “Toxic” and the Activity (A10 [40]) was “Active”. For the same compound, the Activity (Mus musculus [41]) was “Toxic”, the MIC (KB) was 0.1 µg/mL (≈ 0.1 µM) and the Activity (Mus musculus [42]) was -3%.
